Tests used:
A549 human pneumocytes = assay: LPS-induced IL-8 production by A549 human pneumocytes; assay type: cell-based; conditions: LPS from Pseudomonas aeruginosa 100 μg/ml, compound 4 5 μg/L
Procedure: FIG. 2B. LPS (100 μg/ml)-induced IL-8 production by A549 human pneumocytes in the absence or presence of compound (Comp) 4 (5 μg/L).
(§1) The effect of the compounds on the release of IL-8 or KC was tested upon stimulation of intestinal epithelial cells (IEC) with LPS from Salmonella enterica abortus equi. The human IEC line HT29 was used for these experiments. Cells were cultured for 18 h in medium alone or in medium additioned with different concentrations of compounds 4, 5, 6, 7, 4′ and 14 (from 50 mg/L to 5 μg/L). Then, cells were stimulated for 6 h with LPS (1 μg/ml). […] Similar experiments were performed on a human pneumocyte type II cell line (A549) using compound 4 and LPS from Pseudomonas aeruginosa.

[1] = Stability of compound 4 towards pH variations by 1H-NMR; assay type: physicochemical; conditions: D2O, room temperature, spectra at 10 min, 4.5 h and 24 h
Procedure: Stability of compound 4 towards pH variations is evaluated through ^1H-NMR analysis. Two samples are prepared, one in acidic conditions and one in basic conditions; the first is prepared by dissolving 2.3 mg in 550 μl of D2O and adjusting to pH 1.2 through DCl addition, while the second is prepared by dissolving 3 mg of compound 4 in 550 μl of D2O and adjusting to pH 12.5 through NaOD addition. The two samples are kept at room temperature and ^1H-NMR spectra thereof are recorded at time 10 min, 4.5 h and 24 h.
FIG. 1. ^1H-NMR spectra of compound 4 at pH 12.5 and at pH 1.2.

mice treated with LPS = assay: Serum KC levels after oral LPS in mice (diarrhoea model); assay type: in vivo; conditions: compound 4 25 μg/kg oral, then LPS 50 mg/kg oral, serum after 4 h, ELISA
Procedure: FIG. 3. Serum levels of cytokine KC from mice treated with LPS alone or LPS with comp 4. Untr=untreated; LPS=Mice treated with LPS alone; comp 4+LPS=Mice treated with comp 4+LPS; comp 4=Mice treated with comp 4 alone.
We tested whether oral pretreatment of mice with the compound 4 interferes with the increase in KC serum levels induced by LPS administration to mice. The dosage of compound 4 chosen for all in vivo experiments was 25 μg/kg. Mice (10/group) were treated orally with compound 4 (25 μg/kg), followed by oral treatment with LPS (50 mg/kg). Serum samples were collected after 4 h, and KC levels were evaluated by ELISA.

[2] = tested on: SGLT-1-mediated intestinal glucose absorption; assay: Glycemia in mice after oral glucose challenge; assay type: in vivo; conditions: plasma, mice challenged orally with 2.5 g/kg glucose + 250 μg/kg compound 4, 1 h
Procedure: As such, it was argued that it might act as a functional antagonist of SGLT-1-mediated intestinal glucose absorption, and used for the control of hyperglycemia in type II diabetes. This possibility was tested in the following experiments.
In a first set of experiments mice were orally challenged with 2.5 g/kg of glucose with or without concomitant administration of compound 4 (250 μg/kg) and glycemia was measured after 1 h.

HT29 cells = assay: LPS-induced IL-8 production by HT29 intestinal epithelial cells (ELISA); assay type: cell-based, human; conditions: compounds 50 mg/L to 5 μg/L for 18 h, then LPS (Salmonella enterica abortus equi) 1 μg/ml 6 h
Procedure: FIG. 2A. LPS-induced IL-8 production by HT29 cells in the absence or presence of the indicated concentrations of compound (c) 4, 5, 6, 7, 4′, 14.
as §1

[3] = tested on: mice treated with doxorubicin and 5-fluoruracil; assay: Chronic doxorubicin- and 5-fluoruracil-induced enterocyte injury in mice; assay type: in vivo
Procedure: FIG. 11. Serum levels of KC in untreated mice or mice submitted to acute treatment with doxorubicin or chronic treatment with doxorubicin and 5-fluorouracil. Untr=Untreated; Doxo 27 mg=Mice submitted to acute treatment with doxorubicin; Doxo 27 mg comp 4=Mice submitted to acute treatment with doxorubicin and concomitant p.o. administration of comp 4; Doxo cron=Mice submitted to chronic treatment with doxorubicin and 5-fluoruracil; Doxo cron comp 4=Mice submitted to chronic treatment with doxorubicin and 5-fluoruracil and concomitant p.o. administration of compound 4.
FIG. 13. Histology of the epithelium of the small intestine in mice after chronic treatment with doxorubicin and 5-fluoruracil (DOXO+FLUO) or chronic treatment with doxorubicin and 5-fluoruracil and concomitant administration of compound 4 (comp 4+DOXO+FLUO).
For the chronic model of enterocyte injury, doxorubicin was administered 1×/week for three weeks (7 mg/kg for the first two administrations, […] for the last administration). At the same times, mice were administered also 5-fluoruracil at 100 mg/kg. Administrations of the chemotherapeutics were performed intraperitoneally. Some of the mice were treated at the same times with compound 4 (25 μg/kg, orally). Recovery of the blood for the determination of circulating KC levels and subsequent sacrifice of the animals were performed at 72 h after the last treatment. […]

Stability towards pH (degradation by 1H-NMR) ([1]; pH 1.2 (DCl)): no degradation | Stability towards pH (degradation by 1H-NMR) ([1]; pH 12.5 (NaOD)): no degradation
SMILES: CN(C)c1cccc2c(S(=O)(=O)NCC[C@H]3O[C@H](CO)[C@@H](O)[C@H](O)[C@H]3O)cccc12 [Compound 4, 5-(Dimethylamino)-N-[2′-(α-D-glucopyranosyl)ethyl]-1-naphthalenesulphonamide]
LPS-induced IL-8 production (A549 human pneumocytes): significantly inhibited | Serum KC levels (mice treated with LPS): comparable to those of untreated mice | Glycemia levels [2]: 150 mg/dL | production of IL-8 induced by LPS (HT29 cells): significantly inhibited | Histology of the small intestine ([3]; chronic doxorubicin + 5-fluoruracil + compound 4 25 μg/kg orally): completely normal morphology | circulating KC levels ([3]; doxorubicin 1×/week for three weeks + 5-fluoruracil 100 mg/kg i.p. + compound 4 25 μg/kg orally, 72 h after last treatment): brought the levels back to those observed in untreated mice

Source: patent publication US20110112184A1, “COMPOUNDS WITH GLYCIDIC STRUCTURE ACTIVE IN THE THERAPY OF SYSTEMIC AND LOCAL INFLAMMATION” (priority 2008, published 2011)
